From patent US7795498B2, “Use of AtBG1 gene for the generation of transgenic plants with increased resistance to various abiotic stress” (Postech Foundation, priority 2004, dated 2010)
“Also recorded” adds a separate entry of the source.

Key:
AtBG1:HA = test: AtBG1 glycosylation in protoplasts, blotting with anti-HA antibody; assay type: cell-based, Arabidopsis thaliana; conditions: anti-HA blot
Text: To confirm the above result that AtBG1 localizes to ER, the present inventors examined AtBG1 glycosylation. Glycosylation of protein produces glycan and this glycan moiety of the protein localizing to the ER is sensitive to both endo-H and PNGase F, meaning the glycan moiety is easily digested by endo-H and PNGase F enzyme activities (Kuznetsov G. et al., J. Biol. Chem. 268: 2001, 1993). Tunicamycin is an inhibitor of the glycosylation.
Protein extract obtained from protoplasts of AtBG1:HA transfected plant and treated with endo-H and PNGase F (not treated with tunicamycin), protein extract obtained from protoplasts of tunicamycin treated Arabidopsis thaliana transformed with AtBG1 and protein extract obtained from protoplasts of tunicamycin-non-treated Arabidopsis thaliana transformed with AtBG1 were examined by blotting using anti-HA antibody.

wild type = test: Stomatal size of wild type at midnight after NAME treatment; assay type: in vivo, Arabidopsis thaliana; conditions: 100 μM NAME for 10 hours from 4 o'clock, measured at midnight
Method: (§1) Particularly, the transgenic plant was cultured at 20° C. with 70% relative humidity under 16/8 hour-light/dark cycle and the stomatal sizes were measured at noon and midnight (n=150) (FIG. 13).
(§2) To investigate the effect of exogenous ABA on stomatal closure, the ‘mutant atbg1’ plant was treated with 10 μM and 50 μM of ABA at 23 o'clock and stomatal sizes were measured at 24 o'clock (FIG. 14). Control group was treated with 100 μM of NAME (L-nitroargininemethylester), known as […], during the time of stomatal disclosure, that is for 10 hours from 4 o'clock, and stomatal sizes were measured at midnight.

'mutant atbg1' [1] = test: Leaf colour of 'mutant atbg1' after exogenous ABA; assay type: in vivo, Arabidopsis thaliana; conditions: exogenous ABA applied to one week cultivated 'mutant atbg1', 3 more days of culture
Text: Exogenous ABA was applied to one week cultivated ‘mutant atbg1’, followed by culture for 3 more days.

'mutant atbg1' [2] = test: Stomatal size of 'mutant atbg1' at night after ABA treatment; assay type: in vivo, Arabidopsis thaliana; conditions: 10 μM and 50 μM ABA at 23 o'clock, measured at 24 o'clock, n=200
Method: as §1, §2

[3] = ABA-GE hydrolysis by immunopurified AtBG1 proteins, ABA fraction by HPLC and ELISA; assay type: biochemical, Arabidopsis thaliana; conditions: 100 mM citrate buffer pH 5.5, 37° C., one and half hours

## Tunicamycin
AtBG1:HA
  size of AtBG1:HA versus tunicamycin-non-treated protoplasts: smaller

## COC(=O)[C@@H](N)CCCNC(=N)N[N+](=O)[O-] [NAME, L-nitroargininemethylester]
Wild type
  stomatal closure: defects in stomatal closure

## CC1=CC(=O)CC(C)(C)[C@@]1(O)/C=C/C(C)=C\C(=O)O [ABA, abscisic acid]
'mutant atbg1' [1]
  leaf colour phenotype: yellow leaf turned into normal green
'mutant atbg1' [2]
  stomatal closure in the night: induced stomatal closure in the night

B1: AtBG1:HA: HA (hemagglutinin) tagged wild type AtBG1, Arabidopsis thaliana β-glucosidase 1 (protein)
chain: QGPVCGAGLPDKFSRLNFPEGFIWGTATAAFQVEGAVNEGCRGPSMWDTFTKKFPHRCENHNADVAVDFYHRYKEDIQLMKDLNTDAFRLSIAWPRIFPHGRMSKGISKVGVQFYHDLIDELLKNNIIPLVTVFHWDTPQDLEDEYGGFLSGRIVQDFTEYANFTFHEYGHKVKHWITFNEPWVFSRAGYDNGKKAPGRCSPYIPGYGQHCQDGRSGYEAYQVSHNLLLSHAYAVDAFRNCKQCAGGKIGIAHSPAWFEPQDLEHVGGSIERVLDFILGWHLAPTTYGDYPQSMKDRVGHRLPKFTEAEKKLLKGSTDYVGMNYYTSVFAKEISPDPKSPSWTTDSLVDWDSKSVDGYKIGSKPFNGKLDVYSKGLRYLLKYIKDNYGDPEVIIAENGYGEDLGEKHNDVNFGTQDHNRKYYIQRHLLSMHDAICKDKVNVTGYFVWSLMDNFEWQDGYKARFGLYYIDFQNNLTRHQKVSGKWYSEFLKPQFPTSKLREEL
modifications: left off: small tags and cut ends
[3]
  ABA generated from ABA-GE (HPLC peak / ELISA detection): novel peaks at the position for ABA; also recorded: hydrolyzes ABA-GE to form ABA
[3]; listed as wild type AtBG1 protein
  ABA generated from ABA-GE (HPLC peak / ELISA detection): high level of ABA

B2: AtBG1[E207Q]:HA: HA tagged AtBG1 with substitution mutation at position 207, an active site of β-glycosidase (protein, UniProt Q9SE50 27-528, looked up, variant E207Q)
Beta-D-glucopyranosyl …: QGPVCGAGLPDKFSRLNFPEGFIWGTATAAFQVEGAVNEGCRGPSMWDTFTKKFPHRCENHNADVAVDFYHRYKEDIQLMKDLNTDAFRLSIAWPRIFPHGRMSKGISKVGVQFYHDLIDELLKNNIIPLVTVFHWDTPQDLEDEYGGFLSGRIVQDFTEYANFTFHEYGHKVKHWITFNQPWVFSRAGYDNGKKAPGRCSPYIPGYGQHCQDGRSGYEAYQVSHNLLLSHAYAVDAFRNCKQCAGGKIGIAHSPAWFEPQDLEHVGGSIERVLDFILGWHLAPTTYGDYPQSMKDRVGHRLPKFTEAEKKLLKGSTDYVGMNYYTSVFAKEISPDPKSPSWTTDSLVDWDSKSVDGYKIGSKPFNGKLDVYSKGLRYLLKYIKDNYGDPEVIIAENGYGEDLGEKHNDVNFGTQDHNRKYYIQRHLLSMHDAICKDKVNVTGYFVWSLMDNFEWQDGYKARFGLYYIDFQNNLTRHQKVSGKWYSEFLKPQFPTSKLREEL
modifications: HA tag
[3]
  ABA generated from ABA-GE (HPLC peak / ELISA detection): novel peaks at the position for ABA
[3]; ABA peaks quantified by ELISA with anti-ABA antibody
  amount of ABA released from ABA-GE, relative to that of the wild type: 20%
